Reference: patent US4677100A, “Cephalosporin derivatives” (Banyu Pharmaceutical Co., Ltd., priority 1984, dated 1987)
In brackets after ≈: the same amount, converted by molar mass.

Columns and labels:
A. calcoaceticus No. 14 = test: MIC, agar plate dilution method; assay type: cell-based; details: Acinetobacter calcoaceticus; for MIC: A. calcoaceticus No. 14, 10^6 CFU/ml, Sensitivity Disk Agar, read-out: Minimum Inhibitory Concentration
Description: (§1) The minimum inhibitory concentrations (MIC: μg/ml) of the compounds of the present invention against various microorganisms were measured by an agar plate dilution method (inoculum size: 10^6 CFU/ml) by using Sensitivity Disk Agar (Nissui) in comparison with Cefotaxime and Ceftazidime as comparative compounds.

C. freundii No. 7 = test: MIC, agar plate dilution method; assay type: cell-based; details: Citrobacter freundii; C. freundii No. 7; 10^6 CFU/ml; Sensitivity Disk Agar; read-out: Minimum Inhibitory Concentration
Description: as §1

E. cloaceae Nek 39 = test: MIC, agar plate dilution method; assay type: cell-based; details: E. cloaceae Nek 39; 10^6 CFU/ml; Sensitivity Disk Agar; read-out: Minimum Inhibitory Concentration
Description: as §1

E. coli C/Rms149 = test: MIC, agar plate dilution method; assay type: cell-based; details: Escherichia coli, read-out: Minimum Inhibitory Concentration
Description: as §1

E. coli CSH2 = test: MIC, agar plate dilution method; assay type: cell-based; details: Escherichia coli, 10^6 CFU/ml, Sensitivity Disk Agar, read-out: Minimum Inhibitory Concentration
Description: as §1

E. coli CSH = test: MIC, agar plate dilution method; assay type: cell-based; details: Escherichia coli, read-out: Minimum Inhibitory Concentration
Description: as §1

E. coli ML1410/Rte16 = test: MIC, agar plate dilution method; assay type: cell-based; details: Escherichia coli, ML1410/RTE16, read-out: Minimum Inhibitory Concentration
Description: as §1

E. coli NIHJJC-2 = test: MIC, agar plate dilution method; assay type: cell-based; details: Escherichia coli, NIHJJC2; E. coli NIHJJC-2; 10^6 CFU/ml; Sensitivity Disk Agar; read-out: Minimum Inhibitory Concentration
Description: as §1

E. coli W3630/Rms212 = test: MIC, agar plate dilution method; assay type: cell-based; details: Escherichia coli, W3630/RMS212, read-out: Minimum Inhibitory Concentration
Description: as §1

E. coli W3630/Rms213 = test: MIC, agar plate dilution method; assay type: cell-based; details: Escherichia coli, W3630/RMS213, read-out: Minimum Inhibitory Concentration
Description: as §1

K. pneumoniae No. 42 = test: MIC, agar plate dilution method; assay type: cell-based; details: Klebsiella pneumoniae; K. pneumoniae No. 42; 10^6 CFU/ml; Sensitivity Disk Agar; read-out: Minimum Inhibitory Concentration
Description: as §1

P. mirabilis JY10 = test: MIC, agar plate dilution method; assay type: cell-based; details: Proteus mirabilis; P. mirabilis JY10; 10^6 CFU/ml; Sensitivity Disk Agar; read-out: Minimum Inhibitory Concentration
Description: as §1

P. vulgaris No. 33 = test: MIC, agar plate dilution method; assay type: cell-based; details: Proteus vulgaris; P. vulgaris No. 33; 10^6 CFU/ml; Sensitivity Disk Agar; read-out: Minimum Inhibitory Concentration
Description: as §1

P. vulgaris OB1043 = test: MIC, agar plate dilution method; assay type: cell-based; details: Proteus vulgaris; P. vulgaris OB1043; 10^6 CFU/ml; Sensitivity Disk Agar; read-out: Minimum Inhibitory Concentration
Description: as §1

S. aureus JS-1 = test: MIC, agar plate dilution method; assay type: cell-based; details: Staphylococcus aureus, JS1; S. aureus JS-1; 10^6 CFU/ml; Sensitivity Disk Agar; read-out: Minimum Inhibitory Concentration
Description: as §1

S. aureus NIHJJC-1 = test: MIC, agar plate dilution method; assay type: cell-based; details: Staphylococcus aureus, NIHJJC1; S. aureus NIHJJC-1; 10^6 CFU/ml; Sensitivity Disk Agar; read-out: Minimum Inhibitory Concentration
Description: as §1

S. marcescens No. 16-2 = test: MIC, agar plate dilution method; assay type: cell-based; details: Serratia marcescens, NO.162; S. marcescens No. 16-2; 10^6 CFU/ml; Sensitivity Disk Agar; read-out: Minimum Inhibitory Concentration
Description: as §1

P. aeruginosa AK109 = test: MIC, agar plate dilution method; assay type: cell-based, Pseudomonas aeruginosa; details: for antibacterial activity relative to the compound of Reference Example: Pseudomonas aeruginosa AK109; for MIC: Pseudomonas aeruginosa, P. aeruginosa AK109, 10^6 CFU/ml, Sensitivity Disk Agar, read-out: Minimum Inhibitory Concentration
Description: as §1

P. aeruginosa AKR17 = test: MIC, agar plate dilution method; assay type: cell-based, Pseudomonas aeruginosa; details: for antibacterial activity relative to the compound of Reference Example: Pseudomonas aeruginosa AKR-17, resistant to all cephalosporins including Ceftazidime; for MIC: Pseudomonas aeruginosa, P. aeruginosa AKR17, 10^6 CFU/ml, Sensitivity Disk Agar, read-out: Minimum Inhibitory Concentration
Description: as §1

P. cepacia 23 = test: MIC, agar plate dilution method; assay type: cell-based, Pseudomonas cepacia; details: for MIC: Burkholderia cepacia, P. cepacia 23, 10^6 CFU/ml, Sensitivity Disk Agar, read-out: Minimum Inhibitory Concentration; for antibacterial activity relative to the compound of Reference Example: Pseudomonas cepacia 23
Description: as §1

P. maltophilia IID 1275 = test: MIC, agar plate dilution method; assay type: cell-based, Pseudomonas maltophilia; details: for MIC: Stenotrophomonas maltophilia, IID1275, P. maltophilia IID 1275, 10^6 CFU/ml, Sensitivity Disk Agar, read-out: Minimum Inhibitory Concentration
Description: as §1

S. aureus Smith = test: treatment of experimental infection of mice; assay type: in vivo
E. coli Juhl = test: treatment of experimental infection of mice; assay type: in vivo
P. aeruginosa D15 = test: treatment of experimental infection of mice; assay type: in vivo
[1] = tested on: Gram-positive bacteria and Gram-negative bacteria; test: antibacterial activity, general statement; assay type: cell-based; details: sensitive and resistant bacteria
Description: as §1

Row | Structure (SMILES) | antibacterial activity relative to the compound of Reference Example (A. calcoaceticus No. 14) | MIC (A. calcoaceticus No. 14) [µg/mL] | MIC (C. freundii No. 7) [µg/mL] | MIC (E. cloaceae Nek 39) [µg/mL] | MIC (E. coli C/Rms149) [µg/mL] | MIC (E. coli CSH2) [µg/mL] | MIC (E. coli CSH) [µg/mL] | MIC (E. coli ML1410/Rte16) [µg/mL] | MIC (E. coli NIHJJC-2) [µg/mL] | MIC (E. coli W3630/Rms212) [µg/mL] | MIC (E. coli W3630/Rms213) [µg/mL] | MIC (K. pneumoniae No. 42) [µg/mL] | MIC (P. mirabilis JY10) [µg/mL] | MIC (P. vulgaris No. 33) [µg/mL] | MIC (P. vulgaris OB1043) [µg/mL] | MIC (S. aureus JS-1) [µg/mL] | MIC (S. aureus NIHJJC-1) [µg/mL] | MIC (S. marcescens No. 16-2) [µg/mL] | antibacterial activity relative to the compound of Reference Example (P. aeruginosa AK109) | MIC (P. aeruginosa AK109) [µg/mL] | also measured
1 | CON=C(C(=O)NC1C(=O)N2C(C(=O)[O-])=C(C[N+]3(C)Cc4cc(O)c(O)cc4C3)CSC12)c1csc(N)n1 (centres unmarked) [Ex. 4-D, 7-[(Z)-2-(2-aminothiazol-4-yl)-2-methoxyiminoacetamido]-3-(5,6-dihydroxy-2-methyl-2-isoindolinium)methyl-3-cephem-4-carboxylate] | at least 32 times | 0.2 (≈ 0.357 µM) | 6.25 (≈ 11.1 µM) | ≤ 0.05 | 0.1 (≈ 0.178 µM) | 0.2 (≈ 0.357 µM) | 1.56 (≈ 2.78 µM) | 0.1 (≈ 0.178 µM) | ≤ 0.05 | ≤ 0.05 | 0.78 (≈ 1.39 µM) | 0.2 (≈ 0.357 µM) | 0.39 (≈ 0.696 µM) | 0.78 (≈ 1.39 µM) | 3.12 (≈ 5.57 µM) | 25 (≈ 44.6 µM) | 6.25 (≈ 11.1 µM) | 6.25 (≈ 11.1 µM) | at least 16 times | 0.1 (≈ 0.178 µM) | antibacterial activity relative to the compound of Reference Example (P. aeruginosa AKR17): at least 32 times; MIC (P. aeruginosa AKR17): 0.78 µg/mL (≈ 1.39 µM); MIC (P. cepacia 23): 0.2 µg/mL (≈ 0.357 µM); antibacterial activity relative to the compound of Reference Example (P. cepacia 23): at least 32 times; MIC (P. maltophilia IID 1275): 25 µg/mL (≈ 44.6 µM); ED50 (S. aureus Smith; Staphylococcus aureus, mice infected with S. aureus Smith, read-out: ED50): 6.2 mg/kg; efficacy relative to Ceftazidime (S. aureus Smith; experimental infections of mice caused by S. aureus Smith): about twice as high; ED50 (E. coli Juhl; Escherichia coli, mice infected with E. coli Juhl, read-out: ED50): 0.12 mg/kg; efficacy relative to Ceftazidime (E. coli Juhl; experimental infections of mice caused by E. coli Juhl): about twice as high; ED50 (P. aeruginosa D15; Pseudomonas aeruginosa, mice infected with P. aeruginosa D15, read-out: ED50): 14 mg/kg; efficacy relative to Ceftazidime (P. aeruginosa D15; experimental infections of mice caused by P. aeruginosa D15): about twice as high; antibacterial activity (in words) [1]: particularly strong antibacterial activities
2 | CC(C)ON=C(C(=O)NC1C(=O)N2C(C(=O)[O-])=C(C[N+]3(C)Cc4cc(O)c(O)cc4C3)CSC12)c1csc(N)n1 (centres unmarked) [Ex. 9-C, 7-[(Z)-2-(2-aminothiazol-4-yl)-2-isopropoxyiminoacetamido]-3-(5,6-dihydroxy-2-methyl-2-isoindolinium) methyl-3-cephem-4-carboxylate] | at least 32 times | 0.2 (≈ 0.34 µM) | 3.12 (≈ 5.3 µM) | ≤ 0.05 | ≤ 0.05 | ≤ 0.05 | 0.1 (≈ 0.17 µM) | ≤ 0.05 | ≤ 0.05 | ≤ 0.05 | ≤ 0.05 | 0.1 (≈ 0.17 µM) | 0.1 (≈ 0.17 µM) | 0.1 (≈ 0.17 µM) | 0.2 (≈ 0.34 µM) | 12.5 (≈ 21.2 µM) | 6.25 (≈ 10.6 µM) | 0.78 (≈ 1.33 µM) | at least 16 times | ≤ 0.05 | antibacterial activity relative to the compound of Reference Example (P. aeruginosa AKR17): at least 32 times; MIC (P. aeruginosa AKR17): 0.39 µg/mL (≈ 0.663 µM); MIC (P. cepacia 23): ≤ 0.05 µg/mL; antibacterial activity relative to the compound of Reference Example (P. cepacia 23): at least 32 times; antibacterial activity relative to the compound of Reference Example (P. maltophilia IID 1275; Pseudomonas maltophilia resistant to all cephalosporins): at least twice as strong; MIC (P. maltophilia IID 1275): 3.12 µg/mL (≈ 5.3 µM); antibacterial activity (in words) [1]: particularly strong antibacterial activities
